Test results published in patent US12533333B2, “Method of treatment of obesity” (Queen Mary University of London, priority 2016, dated 2026).
Entries after “also recorded” stand apart in the source; their conditions may differ.

Assays:
phosphorylated ERK [1] = assay: pERK activation in human colonic mucosa / proximal colon; type: cell-based
phosphorylated CaMKII [2] = assay: pCaMKII activation in human colonic mucosa / proximal colon; type: cell-based; settings: 100 MM (heading of Example 6), FIG. 9
phosphorylated CaMKII [3] = settings: via GPR120, not via pERK; background; cited from earlier work
phosphorylated ERK [4] = settings: human colonic mucosa / enteroendocrine cells, previously shown; cited from earlier work
[5] = infused into the small intestine through a nasogastric tube; cited from earlier work
[6] = in vivo; cited from earlier work

For c1ccc2c(Cc3c[nH]c4ccccc34)c[nH]c2c1 [DIM, 3,3′-diindolylmethane], the “activation of pERK in colonocytes” value (phosphorylated ERK [1]; in combination with GPR120 agonist TUG891 and GPR84 agonist lauric acid (FIG. 8)) was “potently activates”.
For CC/C=C\C/C=C\C/C=C\CCCCCCCC(=O)O [ALA, (9Z,12Z,15Z)-9,12,15-Octadecatrienoic acid], the “expression of cell activation marker pCamKii” value (phosphorylated CaMKII [2]) is given as “potently induce expression; also recorded: activate”, the “expression of cell activation marker pERK” value (phosphorylated ERK [1]; human colonic mucosa, 100 MM (heading of Example 6), FIG. 9) is given as “potently induce expression; also recorded: activate” and the “activation of pCalmodulin kinase II (pCAMKII)” value (phosphorylated CaMKII [3]) is given as “activate”.
In the case of CCCCCCCCCCCC(=O)O [lauric acid], the “activation of intracellular pathway as measured by phosphorylated ERK” value (phosphorylated ERK [4]) is given as “activates”, the food intake [5] is given as “reduces food intake more potently than other fatty acids” and the “plasma levels of glucagon-like peptide-1 (GLP-1)” value [6] is given as “increasing”. The “plasma levels of peptide YY (PYY)” value [6] was “increasing”.
